Assay results reported in ChEMBL document CHEMBL1150113, “Ulongamides A-F, new beta-amino acid-containing cyclodepsipeptides from Palauan collections of the marine cyanobacterium Lyngbya sp” (J Nat Prod, 2002).
pIC50: −log10 of the molar value. Activity calls are given as the source filed them. The calls are words filed in the database; no cut-off is given here.

How the values were obtained:
Assay type in all cases: functional, cell-based
KB [1] = assay: Cytotoxicity against human KB cells
LoVo [2] = assay: Cytotoxicity against human LoVo cells
LoVo [3] = assay: Cytotoxicity against human LoVo cells at < 10 uM
KB [4] = assay: Cytotoxicity against human KB cells at < 10 uM

Row | Structure (SMILES) | pIC50 (KB [1]) | pIC50 (LoVo [2]) | Activity (LoVo [3]) | Activity (KB [4])
1 | CCC[C@H]1NC(=O)c2csc(n2)[C@H](C)NC(=O)[C@H](C(C)C)N(C)C(=O)[C@H](Cc2ccc(O)cc2)N(C)C(=O)[C@H](C)OC(=O)[C@@H]1C [ULONGAMIDE B] | 6.00 | 5.30 | – | –
2 | CCC[C@H]1NC(=O)c2csc(n2)[C@H](C)NC(=O)[C@H](C(C)C)N(C)C(=O)[C@H](Cc2ccc(O)cc2)N(C)C(=O)[C@H](C(C)C)OC(=O)[C@H]1C [ULONGAMIDE D] | 6.00 | 5.30 | – | –
3 | CCC[C@H]1NC(=O)c2csc(n2)[C@H](C)NC(=O)[C@H](Cc2ccccc2)N(C)C(=O)[C@H](Cc2ccc(O)cc2)N(C)C(=O)[C@H](C)OC(=O)[C@@H]1C [ULONGAMIDE C] | 6.00 | 5.30 | – | –
4 | CCC[C@H]1NC(=O)c2csc(n2)[C@H](C)NC(=O)[C@H](C(C)C)N(C)C(=O)[C@H](C(C)C)NC(=O)[C@H]([C@@H](C)CC)OC(=O)[C@H]1C | – | – | inactive | inactive
5 | CCC[C@H]1NC(=O)c2csc(n2)[C@H](C)NC(=O)[C@H](C(C)C)N(C)C(=O)[C@H](Cc2ccccc2)N(C)C(=O)[C@H](C)OC(=O)[C@@H]1C [ULONGAMIDE A] | 6.00 | 5.30 | – | –
6 | CCC[C@H]1NC(=O)c2csc(n2)[C@H](C)NC(=O)[C@H](C(C)C)N(C)C(=O)[C@H](Cc2ccc(O)cc2)N(C)C(=O)[C@H]([C@H](C)CC)OC(=O)[C@H]1C [ULONGAMIDE E] | 6.00 | 5.30 | – | –
